# Experimental data: US20120065165A1, “COMPOSITIONS AND METHODS OF TREATING ENDOTHELIAL DISORDERS” (ARGINETIX, INC, priority 2008, published 2012)
# Assays:
# [1] = system: rat aortic tissues; assay: cGMP levels in aortic rings of old rats incubated with sildenafil and ABH (cGMP EIA); assay type: cell-based; settings: sildenafil 0 nM
# Protocol: The source of tissue was old (22 to 24 months) male Fischer 344 rats purchased from National Institute for Aging (NIA). The rats were anesthetized in an isoflurane chamber and euthanized. The entire length of the aorta (thoracic, arch, abdominal) were dissected out and cleaned free of connective tissue. These aorta were then sectioned into ˜3 mm long rings. Samples were collected from 2 rats and pooled. […] Rings were incubated in varying concentrations of sildenafil (0-2000 nM) and ABH (0-500 nM) prepared in 200 μL Krebs buffer for 10 min at 37° C. The rings were then snap frozen in liquid nitrogen following treatment. The next day, samples were homogenized in 200 μL 6% TCA buffer (prepared by adding TCA to DI water) at 4° C. for extraction of cyclic nucleotides. The samples were then centrifuged at 12,000 rpm for 5 min at 4° C. Protein pellets were re-dissolved in PBS to determine protein concentration, and supernatant was reserved for cGMP detection. […] ABH (MW 211.45): A stock solution of ABH at a concentration of 100 mM was prepared by dissolving 21.1 mg of ABH into 1 ml Krebs solution. This was used to prepare 5 ml of a 1 mM stock. 200 μL of the 1 mM solution were dispensed into column 12 of a 96-well plate. Six 2× dilutions were prepared in the plate. 200 μL Krebs were dispensed in column 5 to get a concentration range of 0-1000 nM (2× of final concentration). Sildenafil (MW 474.5): A stock solution of sildenafil at a concentartion of 100 mM was prepared by dissolving 47.4 mg of sildenafil into 1 ml Krebs solution; 5 ml of 2 mM stock was prepared from this. Row A received 200 μL of Krebs buffer (0 mM sildenafil), mixed well, and adjusted to a final volume of 200 μL. Next, 200 μL of the 2 mM sildenafil stock was dispensed into row H of the 96 well plate already containing the ABH dilutions ([…]). Six 2× dilutions were prepared from this to get the final concentration ranges for the two drugs. cGMP levels were determined with a cGMP kit (Amersham cGMP Enzyme immunoassay Biotrak (EIA) System Cat #RPN226) and run in accordance with the manufacture's recommendations. The assay uses a competitive fluorescent immunoassay format to measure levels of cGMP. It combines the use of a peroxidase-labelled cGMP conjugate, a specific antiserum which can be immobilized on to pre-coated microplates, and a one-pot stabilized substrate solution. […] In the absence of cGMP most of the HRP conjugate is bound to the antibody and yields a high fluorescence. Increasing concentrations of cGMP competitively decreases the binding of the HRP conjugate, decreasing the measured fluorescence (HRP activity). […] The plate was then incubated for 2 hrs at room temperature with shaking after which it is washed and the fluorescent substrate is added. The plate was incubated for an additional 10 min and then read on a Molecular Devices Gemini EM plate reader set at Ex 530 nm, Em 590 nm (endpoint mode). The signal is reported to be stable for up to 24 hrs, but was generally read within 2 hrs. […] These values were calculated based on the resultant ratio of fluorescence reading of sample divided by fluorescense reading with no cGMP (pmols/mg). For each concentration combination of sildenafil and ABH administered to cells, absorbance (OD at 450 nm) was measured. From these values, the absorbance adjusted for non-specific binding (NSB) for each sample (OD-NSB(B)) was determined from the absorbance (B) divided by the absorbance without cGMP (Bo). Using this value and the standard curve for cGMP, the log (fmol) is found and, after adjusting for the quantity of protein, the pmols of cGMP/mg protein is calculated.
# [2] = system: aged Fisher rats; assay: Erectile function: intracavernous pressure after cavernous nerve stimulation in aged rats; assay type: in vivo, rat; settings: ABH 6 mg/kg in drinking water 28 days
# Protocol: Aged (22-26 months) Fisher rats were given either ABH (6 mg/kg in their drinking water) or plain water for 28 days. Young (4-8 months) were given plain water for 28 days. Rats were then anesthetized and erectile function was evaluated as an indicator of vascular function, by measuring intra-cavernous pressure following electrical stimulation of the cavernous nerve using an electrode placed around the pelvic nerve which innervates the penis (Cama, et al., 2003 Biochemistry 42: 8445-8451). The change in intracavernosal pressure was measured via a catheter placed in the corpora cavernosa. A range of stimulation frequencies were used to measure relaxation effects (and consequentially vascular dependent erectile responses) over their entire functional range.
# [3] = system: old rat aorta; assay: ROS production in aortic rings (DHE fluorescence); assay type: cell-based; settings: aged rat aortas
# Description: ABH improves endothelial function by inhibiting arginase and consequently increasing NO production (by increasing L-arginine availability to eNOS) and decreasing levels of ROS (by preventing eNOS uncoupling). […] Aortic rings were dissected and pinned down, endothelial side up, on a silastic coated culture dish, and then exposed to either the NO-sensitive dye DAF, or the O2-sensitive dye DHE. Since the interaction of NO or ROS with its specific dye is cumulative, the rate of production of each species is proportional to the slope of the fluorescence emitted from the dye as measured using epifluorescence microscopy. […] SNP endothelial-independent NO donor was included as a control (Santhanam et al 2007).
# This supports the hypothesis that arginase inhibition results in increased vascular NO production. A corollary of this effect is a decrease in ROS production by re-coupling eNOS to NO production. […] This resulted from deranged NOS activity (uncoupled NOS), since ROS levels could be reduced using the NOS-inhibitor nitro-L-arginine methyl ester (FIG. 6C). […] Similar techniques are used to examine whether ABH can restore NO production and decrease ROS production in vascular endothelial cells and corporal tissue from type 2 diabetic rats.
# [4] = system: eNOS; assay: eNOS activity (L-arginine to L-citrulline) in human diabetic corpus cavernosum extracts; assay type: biochemical; settings: 1 mM ABH added to diabetic penile extracts
# Description: In order to study the role of arginase in the development of these defects, corpus cavernosum tissue extracts were obtained from non-diabetic and diabetic men undergoing placement of a penile prosthesis for the management of their severe ED (Bivalacqua, et al., 2001 Biochem. Biophys. Res. Commun. 283: 923-927). […] Constitutive nitric oxide synthase activity (eNOS activity; calcium-dependent conversion of L-arginine to L-citrulline) is […] in human corporal tissue from diabetic patients vs. controls (See FIG. 7C), *P<0.05 when compare to controls; in the presence of the selective arginase inhibitor ABH, eNOS activity in human diabetic corpora caversosa is restored, **P<0.05 when compared to diabetic (Bivalacqua, et al., 2001 Biochem. Biophys. Res. Commun. 283: 923-927).
# Diabetic corporal tissue extracts were prepared for the measurement of arginase activity by the production of urea in the presence of labeled arginine (FIG. 7B).
# [5] = system: arginase I; settings: tissue extracts from diabetic corpus cavernosa; cited from earlier work
# [6] = cavernous nerve stimulation, vs controls
smiles,measurement,setting,value
"N[C@@H](CCCCB(O)O)C(=O)O [ABH, 2(S)-Amino-6-boronohexanoic acid]","Theoretical response T(x,y) based on an additive effect",[1]; ABH 7.81 nM,0.34 pmol/mg
same,"pmols of cGMP/mg protein produced P(x,y)",[1]; ABH 7.81 nM,0.34 pmols/mg
same,"Theoretical response T(x,y) based on an additive effect",[1]; ABH 31.25 nM,0.90 pmol/mg
same,"pmols of cGMP/mg protein produced P(x,y)",[1]; ABH 31.25 nM,0.90 pmols/mg
same,"Theoretical response T(x,y) based on an additive effect",[1]; ABH 125 nM,1.14 pmol/mg
same,"pmols of cGMP/mg protein produced P(x,y)",[1]; ABH 125 nM,1.14 pmols/mg
same,"Theoretical response T(x,y) based on an additive effect",[1]; ABH 500 nM,0.16 pmol/mg
same,"pmols of cGMP/mg protein produced P(x,y)",[1]; ABH 500 nM,0.16 pmols/mg
same,all penile hemodynamic parameters after CNS,[2],marked improvement
same,ratio of mean peak intracavernous pressure (ICP) to mean arterial pressure (MAP),[2]; [6],marked increase
same,total ICP (area under the erectile curve),[2]; [6],marked increase
same,ROS production,[3],significantly reduced
same,eNOS activity,[4],improved to levels that were comparable to those of control corpus cavernosum
same,levels of cGMP,[5],increase levels of cGMP
